From US20100297109A1, “METHODS FOR INHIBITING FASCIN” (Cornell University, priority 2007, published 2010) come the findings set out here.

Test [1] relates to human colon tumor Lovo cells. Description: Cell migration assay, Lovo cells. Format: cell-based.
Test [2] concerns the target T1, fascin His474 to Ala mutant (Homo sapiens, UniProt Q16658, H474A).
T1 construct: GST (N, cleaved yes); made in house; host or cells: Escherichia coli BL21 (pGEX4T-Fascin1)
The test is described as follows: Actin bundling assay with fascin H474A mutant. Format: biochemical. From the text: Identification of fascin as the protein target of migrastatin analogs. Whole cell lysates from 4T1 mouse breast tumor cells were made. After preclearing the cell lysate with immobilized neutravidin biotin binding protein (Pierce, IL, USA) to remove biotin and avidin-binding proteins, the cell lysates were loaded to a column packed with the biotin-labeled macroketone (conjugated to neutravidin beads). A control column packed with free biotin and neutravidin beads was run side-by-side. After washing the column with 10 bed volumes of lysis buffer with 300 mM NaCl, the bound proteins were eluted with 0.1 M Glycine-HCl at pH 2.8 according to the manufacturer's instruction. […] A 1-liter culture was grown to an A600 reading of 1.0 and then induced by addition of 0.3 mM isopropyl 1-thio-D-galactopyranoside (IPTG) for 12 hours at 25° C. […] Actin bundling activity was measured by low speed centrifugation assay and fluorescence microscopy. […] Both supernatants and pellets were dissolved in an equivalent volume of SDS sample buffer, and the amount of actin was determined by SDS-PAGE. For fluorescence microscopy, monomeric G-actin was polymerized as described above. […] The samples were mounted between a slide and a coverslip coated with poly-lysine and imaged by fluorescence microscopy. […] Both supernatants and pellets were dissolved in an equivalent volume of SDS sample buffer and analyzed by SDS-PAGE. […]

Test [3] deals with fascin (Homo sapiens, UniProt Q16658). The test is described as follows: F-actin bundling assay, low-speed centrifugation (F-actin pelleting). Format: biochemical. Also noted: GST (N); made in house; host or cells: Escherichia coli BL21. The protocol:
Whole cell lysates from 4T1 mouse breast tumor cells were made. After preclearing the cell lysate with immobilized neutravidin biotin binding protein (Pierce, IL, USA) to remove biotin and avidin-binding proteins, the cell lysates were loaded to a column packed with the biotin-labeled macroketone (conjugated to neutravidin beads). A control column packed with free biotin and neutravidin beads was run side-by-side. After washing the column with 10 bed volumes of lysis buffer with 300 mM NaCl, the bound proteins were eluted with 0.1 M Glycine-HCl at pH 2.8 according to the manufacturer's instruction. […] Protein Expression and Purification. Recombinant GST-fascin fusion protein was produced in BL21 Escherichia coli. A 1-liter culture was grown to an A600 reading of 1.0 and then induced by addition of 0.3 mM isopropyl 1-thio-D-galactopyranoside (IPTG) for 12 hours at 25° C. Cells were flash frozen and then lysed by sonication in Tris-buffered saline. The supernatant was then incubated with glutathione-Sepharose for 2 h at 4° C. After extensive washing, GST-fascin was eluted and concentrated with a Centricon Plus-20 (Millipore). To remove the GST tag from the fusion protein, beads were incubated with thrombin overnight at 4° C. The supernatant was collected and concentrated. […] Actin bundling activity was measured by low speed centrifugation assay and fluorescence microscopy. […]

SMILES strings stand for the structures.

For the compound `COC1C=CCCCCC(=O)CCC(C)=CC(C)C1O` (stereo not shown) [macroketone, Migrastatin ketone], the inhibition of migration result in test [1] is reported as “inhibited the migration”. Moreover, the “sensitivity of actin bundling activity of fascin mutant” value in test [2] is on record as “resistant”. The “fascin-induced bundling of F-actin polymers” value in test [3] (with fascin) is on record as “significantly decreased”. In test [3] (without fascin), the “formation of F-actin bundles, compound alone” value was “had no effect”.
